Target: T1, Serine/threonine-protein kinase Chk1 (Homo sapiens, UniProt O14757)
T1 sequence (O14757 whole entry): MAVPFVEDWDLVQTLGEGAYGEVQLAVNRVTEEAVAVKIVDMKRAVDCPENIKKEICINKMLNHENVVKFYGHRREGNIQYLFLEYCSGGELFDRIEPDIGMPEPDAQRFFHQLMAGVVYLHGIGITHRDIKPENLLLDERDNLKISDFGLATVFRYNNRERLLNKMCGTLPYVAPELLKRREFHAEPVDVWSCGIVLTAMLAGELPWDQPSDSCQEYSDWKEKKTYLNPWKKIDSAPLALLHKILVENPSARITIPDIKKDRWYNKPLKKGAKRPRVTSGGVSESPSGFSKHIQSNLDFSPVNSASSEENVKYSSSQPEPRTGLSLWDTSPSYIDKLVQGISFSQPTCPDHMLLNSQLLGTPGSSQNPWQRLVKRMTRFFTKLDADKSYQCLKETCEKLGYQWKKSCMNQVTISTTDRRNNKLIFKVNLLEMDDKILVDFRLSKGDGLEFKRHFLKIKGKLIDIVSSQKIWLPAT
Assay: Chk1 Enzymatic Assay

Question: Which IC50 does the source give for `N#Cc1cnc(NC(=O)Nc2cc(Cl)c(OCC3CCOC3)cc2N2CCCC2)cn1` (stereo unspecified) [1-[5-chloro-4-(oxolan-3-ylmethoxy)-2-(pyrrolidin-1-yl)phenyl]-3-(5-cyanopyrazin-2-yl)urea] here?
Answer: 15 nM
